Experimental data: ChEMBL document CHEMBL5291721, “A preclinical secondary pharmacology resource illuminates target-adverse drug reaction associations of marketed drugs” (Nat Commun, 2023)

Assays:
[1] = biological target: Cannabinoid receptor 1 (Homo sapiens, UniProt P21554); type: functional, cell-based
[2] = biological target: T1, B2 bradykinin receptor (Homo sapiens, UniProt P30411)
T1 sequence (P30411 whole entry): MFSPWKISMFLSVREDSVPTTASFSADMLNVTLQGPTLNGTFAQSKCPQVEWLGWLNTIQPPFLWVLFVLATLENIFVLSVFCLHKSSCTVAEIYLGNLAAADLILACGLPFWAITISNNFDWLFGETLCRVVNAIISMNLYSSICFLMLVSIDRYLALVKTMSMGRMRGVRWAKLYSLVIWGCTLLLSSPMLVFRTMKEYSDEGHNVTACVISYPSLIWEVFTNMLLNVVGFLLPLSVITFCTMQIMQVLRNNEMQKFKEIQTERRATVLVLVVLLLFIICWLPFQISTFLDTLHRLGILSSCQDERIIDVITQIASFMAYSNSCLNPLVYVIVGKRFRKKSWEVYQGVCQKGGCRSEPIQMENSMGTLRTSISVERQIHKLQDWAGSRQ

[3] = biological target: T2, Progesterone receptor (Homo sapiens, UniProt P06401); type: functional
T2 sequence (P06401 whole entry): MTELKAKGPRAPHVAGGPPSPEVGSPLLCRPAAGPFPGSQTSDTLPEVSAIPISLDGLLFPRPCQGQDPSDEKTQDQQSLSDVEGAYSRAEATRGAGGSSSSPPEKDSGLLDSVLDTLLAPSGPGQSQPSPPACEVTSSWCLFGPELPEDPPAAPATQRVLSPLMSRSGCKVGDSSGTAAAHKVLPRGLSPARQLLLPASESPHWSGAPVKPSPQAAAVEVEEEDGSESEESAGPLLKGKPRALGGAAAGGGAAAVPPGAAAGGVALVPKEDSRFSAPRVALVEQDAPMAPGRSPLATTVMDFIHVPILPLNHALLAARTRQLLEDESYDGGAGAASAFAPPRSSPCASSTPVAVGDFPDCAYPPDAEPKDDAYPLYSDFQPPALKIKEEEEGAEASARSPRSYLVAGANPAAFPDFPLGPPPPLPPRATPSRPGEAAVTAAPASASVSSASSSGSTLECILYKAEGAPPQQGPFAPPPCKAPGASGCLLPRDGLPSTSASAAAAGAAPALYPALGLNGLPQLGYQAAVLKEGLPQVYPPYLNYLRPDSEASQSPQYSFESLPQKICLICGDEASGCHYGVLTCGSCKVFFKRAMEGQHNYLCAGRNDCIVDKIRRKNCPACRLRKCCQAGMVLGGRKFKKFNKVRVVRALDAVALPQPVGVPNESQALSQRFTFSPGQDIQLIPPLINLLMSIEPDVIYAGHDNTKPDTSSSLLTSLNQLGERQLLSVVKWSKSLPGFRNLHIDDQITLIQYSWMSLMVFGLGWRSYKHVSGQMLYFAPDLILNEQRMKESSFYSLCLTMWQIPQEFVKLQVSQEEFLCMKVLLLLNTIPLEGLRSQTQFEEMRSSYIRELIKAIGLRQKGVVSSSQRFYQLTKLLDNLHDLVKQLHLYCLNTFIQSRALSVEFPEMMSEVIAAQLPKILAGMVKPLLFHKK

[4] = biological target: T3, 5-hydroxytryptamine receptor 2B (Homo sapiens, UniProt P41595); type: functional, cell-based
T3 sequence (P41595 whole entry): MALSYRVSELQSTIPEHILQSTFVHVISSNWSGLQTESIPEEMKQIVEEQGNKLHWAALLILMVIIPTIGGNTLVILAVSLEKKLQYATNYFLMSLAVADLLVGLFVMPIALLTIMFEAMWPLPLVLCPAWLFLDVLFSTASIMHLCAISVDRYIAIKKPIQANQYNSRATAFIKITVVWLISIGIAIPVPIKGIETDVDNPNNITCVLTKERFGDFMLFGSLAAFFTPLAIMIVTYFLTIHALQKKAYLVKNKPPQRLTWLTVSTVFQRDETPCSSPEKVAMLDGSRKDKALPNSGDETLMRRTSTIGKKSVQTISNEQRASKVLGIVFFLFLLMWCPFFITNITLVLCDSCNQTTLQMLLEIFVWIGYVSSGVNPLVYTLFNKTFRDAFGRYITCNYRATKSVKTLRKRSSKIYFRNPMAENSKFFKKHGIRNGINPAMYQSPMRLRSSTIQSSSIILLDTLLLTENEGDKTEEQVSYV

[5] = biological target: Vasopressin V2 receptor (Homo sapiens, UniProt P30518)
Vasopressin V2 receptor, sequence (P30518 whole entry): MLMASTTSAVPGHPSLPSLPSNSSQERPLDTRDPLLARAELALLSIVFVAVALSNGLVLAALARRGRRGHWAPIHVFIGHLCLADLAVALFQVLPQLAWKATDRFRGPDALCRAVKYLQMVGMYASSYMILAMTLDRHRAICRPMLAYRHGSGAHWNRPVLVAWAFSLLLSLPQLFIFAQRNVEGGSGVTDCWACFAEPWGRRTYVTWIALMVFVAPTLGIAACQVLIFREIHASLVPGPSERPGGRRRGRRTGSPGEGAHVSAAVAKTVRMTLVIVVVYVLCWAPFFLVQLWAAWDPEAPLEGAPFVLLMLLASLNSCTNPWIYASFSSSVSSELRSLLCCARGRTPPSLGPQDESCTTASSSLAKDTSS

[6] = biological target: 5-hydroxytryptamine receptor 2A (Homo sapiens, UniProt P28223); type: functional, cell-based
5-hydroxytryptamine receptor 2A, sequence (P28223 whole entry): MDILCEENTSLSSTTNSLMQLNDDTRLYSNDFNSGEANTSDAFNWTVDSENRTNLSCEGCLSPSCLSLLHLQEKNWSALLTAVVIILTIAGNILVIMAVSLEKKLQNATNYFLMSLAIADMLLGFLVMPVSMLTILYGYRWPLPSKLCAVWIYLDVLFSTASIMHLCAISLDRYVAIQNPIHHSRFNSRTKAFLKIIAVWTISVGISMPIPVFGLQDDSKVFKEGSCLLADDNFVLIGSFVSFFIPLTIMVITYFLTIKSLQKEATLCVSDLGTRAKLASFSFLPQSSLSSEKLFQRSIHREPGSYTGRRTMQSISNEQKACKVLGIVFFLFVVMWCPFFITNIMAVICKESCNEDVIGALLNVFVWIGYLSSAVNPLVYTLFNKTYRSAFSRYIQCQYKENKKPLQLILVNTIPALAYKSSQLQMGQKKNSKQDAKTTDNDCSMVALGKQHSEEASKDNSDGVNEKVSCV

[7] = biological target: Beta-2 adrenergic receptor (Homo sapiens, UniProt P07550); type: functional, cell-based
Beta-2 adrenergic receptor, sequence (P07550 whole entry): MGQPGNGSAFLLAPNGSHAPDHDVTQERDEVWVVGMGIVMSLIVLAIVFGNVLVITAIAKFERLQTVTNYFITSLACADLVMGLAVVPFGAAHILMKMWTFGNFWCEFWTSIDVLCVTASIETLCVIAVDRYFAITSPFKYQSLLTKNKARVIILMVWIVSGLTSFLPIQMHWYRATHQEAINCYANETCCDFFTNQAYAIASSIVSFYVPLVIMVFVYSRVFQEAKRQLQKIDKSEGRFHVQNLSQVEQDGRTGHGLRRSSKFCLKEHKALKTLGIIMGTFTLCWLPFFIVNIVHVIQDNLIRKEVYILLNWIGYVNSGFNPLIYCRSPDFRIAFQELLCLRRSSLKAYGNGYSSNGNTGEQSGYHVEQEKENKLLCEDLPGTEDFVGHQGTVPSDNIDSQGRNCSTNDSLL

[8] = biological target: Mu-type opioid receptor (Homo sapiens, UniProt P35372)
Mu-type opioid receptor, sequence (P35372 whole entry): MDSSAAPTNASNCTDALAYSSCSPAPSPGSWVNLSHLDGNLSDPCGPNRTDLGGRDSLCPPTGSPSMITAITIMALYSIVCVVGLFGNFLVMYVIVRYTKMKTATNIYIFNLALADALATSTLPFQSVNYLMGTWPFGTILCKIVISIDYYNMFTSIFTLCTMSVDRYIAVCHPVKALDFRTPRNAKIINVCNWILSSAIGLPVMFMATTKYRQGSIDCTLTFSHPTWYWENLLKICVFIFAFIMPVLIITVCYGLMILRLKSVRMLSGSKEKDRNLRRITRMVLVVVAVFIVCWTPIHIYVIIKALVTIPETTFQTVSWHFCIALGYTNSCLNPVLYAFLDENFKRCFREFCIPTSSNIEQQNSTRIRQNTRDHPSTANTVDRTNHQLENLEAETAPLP

[9] = biological target: Melanocortin receptor 4 (Homo sapiens, UniProt P32245)
Melanocortin receptor 4, sequence (P32245 whole entry): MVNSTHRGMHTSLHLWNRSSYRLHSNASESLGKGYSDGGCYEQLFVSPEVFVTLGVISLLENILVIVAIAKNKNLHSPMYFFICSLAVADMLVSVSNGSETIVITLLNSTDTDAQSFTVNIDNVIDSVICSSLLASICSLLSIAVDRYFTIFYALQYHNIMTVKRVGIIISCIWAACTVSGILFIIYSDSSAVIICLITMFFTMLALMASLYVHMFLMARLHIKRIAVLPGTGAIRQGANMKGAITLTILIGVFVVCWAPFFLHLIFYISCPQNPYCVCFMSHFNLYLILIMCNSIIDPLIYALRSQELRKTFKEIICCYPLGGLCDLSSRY

[10] = biological target: T4, Estrogen receptor (Homo sapiens, UniProt P03372)
T4 sequence (P03372 whole entry): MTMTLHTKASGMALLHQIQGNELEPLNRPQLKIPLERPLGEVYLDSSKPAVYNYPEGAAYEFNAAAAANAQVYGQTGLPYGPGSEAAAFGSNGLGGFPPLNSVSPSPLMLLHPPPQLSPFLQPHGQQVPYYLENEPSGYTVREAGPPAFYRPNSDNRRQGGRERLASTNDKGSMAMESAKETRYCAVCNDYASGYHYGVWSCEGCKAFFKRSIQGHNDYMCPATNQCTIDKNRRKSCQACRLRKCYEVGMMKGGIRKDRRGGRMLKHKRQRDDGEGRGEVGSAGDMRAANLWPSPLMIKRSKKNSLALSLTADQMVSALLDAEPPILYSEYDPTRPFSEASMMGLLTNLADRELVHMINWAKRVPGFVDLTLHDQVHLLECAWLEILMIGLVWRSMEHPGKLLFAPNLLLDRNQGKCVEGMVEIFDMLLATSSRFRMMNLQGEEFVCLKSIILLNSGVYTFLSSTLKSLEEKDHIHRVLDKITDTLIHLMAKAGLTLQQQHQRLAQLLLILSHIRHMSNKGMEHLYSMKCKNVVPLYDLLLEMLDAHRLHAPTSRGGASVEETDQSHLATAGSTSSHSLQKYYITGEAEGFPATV

[11] = biological target: Sodium-dependent dopamine transporter (Homo sapiens, UniProt Q01959)
Sodium-dependent dopamine transporter, sequence (Q01959 whole entry): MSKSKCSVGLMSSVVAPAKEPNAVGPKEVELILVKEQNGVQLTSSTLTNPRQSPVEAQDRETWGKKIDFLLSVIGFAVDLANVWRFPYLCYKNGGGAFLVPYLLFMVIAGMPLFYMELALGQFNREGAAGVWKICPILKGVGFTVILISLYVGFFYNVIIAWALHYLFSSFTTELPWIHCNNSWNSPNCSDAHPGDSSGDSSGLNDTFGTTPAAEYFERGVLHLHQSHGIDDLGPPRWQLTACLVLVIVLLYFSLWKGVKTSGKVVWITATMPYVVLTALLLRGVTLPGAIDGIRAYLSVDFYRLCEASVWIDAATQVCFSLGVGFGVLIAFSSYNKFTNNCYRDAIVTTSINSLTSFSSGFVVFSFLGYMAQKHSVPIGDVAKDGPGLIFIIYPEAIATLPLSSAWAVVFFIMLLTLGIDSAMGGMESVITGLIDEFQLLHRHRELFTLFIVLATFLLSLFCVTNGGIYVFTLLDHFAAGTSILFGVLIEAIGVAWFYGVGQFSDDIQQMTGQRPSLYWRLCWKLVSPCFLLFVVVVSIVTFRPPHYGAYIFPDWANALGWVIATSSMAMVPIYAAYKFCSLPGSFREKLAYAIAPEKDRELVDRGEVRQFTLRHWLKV

[12] = biological target: T3, 5-hydroxytryptamine receptor 2B; type: functional, cell-based; remark: listed apart in the source
[13] = biological target: T5, Alpha-2B adrenergic receptor (Homo sapiens, UniProt P18089)
T5 sequence (P18089 whole entry): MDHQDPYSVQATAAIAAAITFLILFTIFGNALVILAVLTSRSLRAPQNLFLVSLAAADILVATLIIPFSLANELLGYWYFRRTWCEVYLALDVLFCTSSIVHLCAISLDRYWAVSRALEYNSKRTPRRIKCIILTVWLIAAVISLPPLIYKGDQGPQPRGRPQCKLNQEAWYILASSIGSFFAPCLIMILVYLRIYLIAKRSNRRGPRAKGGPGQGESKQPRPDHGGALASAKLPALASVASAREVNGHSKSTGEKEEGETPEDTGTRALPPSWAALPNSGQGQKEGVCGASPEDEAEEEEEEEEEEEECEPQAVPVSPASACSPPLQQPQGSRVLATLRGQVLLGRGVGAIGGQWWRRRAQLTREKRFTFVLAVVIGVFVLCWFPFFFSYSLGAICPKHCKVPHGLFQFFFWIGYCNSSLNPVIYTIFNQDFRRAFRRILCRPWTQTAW
Further: assay procedure not described here.

Cannabinoid receptor 1, sequence (P21554 whole entry): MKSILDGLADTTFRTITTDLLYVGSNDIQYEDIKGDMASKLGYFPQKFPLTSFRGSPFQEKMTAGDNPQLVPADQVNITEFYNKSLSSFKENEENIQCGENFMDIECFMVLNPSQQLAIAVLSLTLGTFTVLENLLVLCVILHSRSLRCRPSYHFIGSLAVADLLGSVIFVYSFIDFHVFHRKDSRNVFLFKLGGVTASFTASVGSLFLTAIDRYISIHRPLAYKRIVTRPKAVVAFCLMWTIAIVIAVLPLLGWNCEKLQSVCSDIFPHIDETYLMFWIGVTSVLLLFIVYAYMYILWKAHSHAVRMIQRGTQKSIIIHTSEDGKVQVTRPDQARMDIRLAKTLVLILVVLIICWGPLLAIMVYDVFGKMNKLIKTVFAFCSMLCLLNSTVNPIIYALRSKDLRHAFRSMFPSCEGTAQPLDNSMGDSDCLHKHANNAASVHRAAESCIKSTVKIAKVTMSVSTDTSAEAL

SMILES | AC50 [10] [µM] | AC50 [11] [µM] | AC50 [12] [µM] | also measured
Cc1nc([N+](=O)[O-])cn1-c1ccc([N+](=O)[O-])cc1 [NITREFAZOLE] | – | – | – | AC50 [1]: > 30 µM; AC50 [2]: > 30 µM; AC50 [3]: > 30 µM; AC50 [4]: > 30 µM; AC50 [5]: > 30 µM; AC50 [6]: > 30 µM; AC50 [7]: > 30 µM
C1CCC(C(CC2CCCCN2)C2CCCCC2)CC1 (stereo not drawn) [PERHEXILINE] | – | – | – | AC50 [1]: > 30 µM; AC50 [8]: 16 µM; AC50 [3]: > 30 µM; AC50 [7]: > 30 µM
C[N+]1(C)CCC(OC(=O)C(O)(c2ccccc2)C2CCCC2)C1 (stereo not drawn) [GLYCOPYRRONIUM BROMIDE] | > 30 | – | – | AC50 [9]: > 30 µM; AC50 [2]: > 30 µM; AC50 [3]: > 10 µM; AC50 [5]: > 30 µM
C[N+](C)(C)CCO [CHOLINE] | > 30 | > 30 | > 30 | –
Oc1c(Cl)cc(Cl)c2cccnc12 [CHLOROXINE] | > 30 | > 30 | > 30 | –
CN(C)S(=O)(=O)c1ccc2c(c1)N(CCCN1CCC(CCO)CC1)c1ccccc1S2 [PIPOTIAZINE] | > 30 | 8.9 | > 30 | –
CCC(=O)NCC[C@@H]1CCc2ccc3c(c21)CCO3 [RAMELTEON] | > 30 | > 30 | > 30 | –
COc1cc(NC(C)CCCN)c2ncccc2c1 (stereo not drawn) [PRIMAQUINE] | > 30 | – | – | AC50 [2]: > 30 µM; AC50 [5]: > 30 µM
Cc1cc(C#N)cc(C)c1Oc1nc(Nc2ccc(C#N)cc2)nc(N)c1Br [ETRAVIRINE] | 6.28 | > 10 | > 30 | –
N[C@H](C(=O)O)[C@H](O)c1ccc(O)c(O)c1 [DROXIDOPA] | > 30 | > 30 | > 30 | –
Nc1nc(NC2CC2)c2ncn([C@H]3C=C[C@@H](CO)C3)c2n1 [ABACAVIR] | – | – | – | AC50 [1]: > 30 µM; AC50 [13]: > 30 µM; AC50 [2]: > 30 µM; AC50 [3]: > 30 µM; AC50 [5]: > 30 µM; AC50 [6]: > 30 µM; AC50 [7]: > 30 µM
CN(C)CCN1C(=O)c2ccccc2N(C)c2ccccc21 [DIBENZEPIN] | > 30 | > 30 | > 30 | –
CC(=O)N[C@@H]1[C@@H](O)[C@H](O)[C@@H](CO)O[C@H]1O [N-ACETYLGLUCOSAMINE] | > 30 | > 30 | > 30 | –
CCCCCCOc1nsnc1C1=CCCN(C)C1 [XANOMELINE] | > 30 | 3.37 | > 30 | –
CN(C)CC(c1ccc(O)cc1)C1(O)CCCCC1 (stereo not drawn) [DESVENLAFAXINE] | > 30 | – | > 30 | –
COCc1c(C(C)C)nc(C(C)C)c(/C=C/[C@@H](O)C[C@@H](O)CC(=O)O)c1-c1ccc(F)cc1 [CERIVASTATIN] | 23.3 | > 30 | > 30 | –
CC[C@H]1[C@@H](O)[C@@H]2[C@H](CC[C@]3(C)[C@@H]([C@H](C)CCC(=O)O)CC[C@@H]23)[C@@]2(C)CC[C@@H](O)C[C@@H]12 [OBETICHOLIC ACID] | > 30 | > 30 | > 30 | AC50 [1]: > 30 µM; AC50 [13]: > 30 µM; AC50 [2]: > 30 µM; AC50 [3]: > 30 µM; AC50 [5]: > 30 µM; AC50 [6]: 11.5 µM
CCC1=C(C)CN(C(=O)NCCc2ccc(S(=O)(=O)NC(=O)N[C@H]3CC[C@H](C)CC3)cc2)C1=O [GLIMEPIRIDE] | > 30 | > 30 | > 30 | –
CC(C)(C)NC[C@H](O)COc1ccccc1C1CCCC1 [PENBUTOLOL] | > 30 | > 30 | > 30 | –
CCc1oc2ccccc2c1C(=O)c1cc(I)c(O)c(I)c1 [BENZIODARONE] | > 30 | 9.96 | > 30 | –
CC[N+]1(C)[C@@H]2CC(OC(=O)[C@H](CO)c3ccccc3)C[C@H]1[C@@H]1O[C@@H]12 (stereo partly drawn) [OXITROPIUM] | > 30 | > 30 | > 30 | –
CN(C)[C@@H](c1cccc(O)c1)[C@H]1CCCC[C@H]1O [CIRAMADOL] | > 30 | 29.6 | > 30 | –
Cc1cn([C@H]2C[C@H](N=[N+]=[N-])[C@@H](CO)O2)c(=O)[nH]c1=O [ZIDOVUDINE] | > 30 | > 30 | > 30 | AC50 [1]: > 30 µM; AC50 [9]: > 30 µM; AC50 [2]: > 30 µM; AC50 [8]: > 30 µM; AC50 [4]: > 10 µM; AC50 [5]: > 30 µM
CC(C)Nc1ncccn1 [ISAXONINE] | > 30 | > 30 | > 30 | –
CC[C@H]1OC(=O)[C@H](C)[C@@H](O[C@H]2C[C@@](C)(OC)[C@@H](O)[C@H](C)O2)[C@H](C)[C@@H](O[C@@H]2O[C@H](C)C[C@H](N(C)C)[C@H]2O)[C@](C)(O)C[C@@H](C)CN(C)[C@H](C)[C@@H](O)[C@]1(C)O [AZITHROMYCIN] | > 30 | > 30 | > 30 | AC50 [1]: > 30 µM; AC50 [9]: > 30 µM; AC50 [2]: > 30 µM; AC50 [8]: > 10 µM; AC50 [4]: > 10 µM; AC50 [5]: > 30 µM
O=C(O)c1cc(O)ccc1O [GENTISIC ACID] | > 30 | > 30 | > 30 | –
C=C[C@H]1C[N@@]2CC[C@H]1C[C@H]2[C@H](O)c1ccnc2ccc(OC)cc12 [QUININE] | > 30 | > 30 | > 30 | –
OCCN1C[C@H](O)[C@@H](O)[C@H](O)[C@H]1CO [MIGLITOL] | > 30 | > 30 | > 30 | –
O=C(CCNNC(=O)c1ccncc1)NCc1ccccc1 [NIALAMIDE] | > 30 | > 30 | > 30 | –
N[C@@H](C(=O)N[C@@H]1C(=O)N2C(C(=O)O)=C(Cl)CC[C@H]12)c1ccccc1 [LORACARBEF ANHYDROUS] | > 30 | > 30 | > 30 | –
